The values that follow come from patent US12173002B2, “PRMT5 inhibitors and methods of use” (SHANGHAI APEIRON THERAPEUTICS COMPANY LIMITED, priority 2022, dated 2024).

Experiment [1] deals with HCT-116 MTAP wild-type cells. Description: Inhibitory activity on proliferation of HCT-116 MTAP wild-type cells (Cell-Titer Glo, 8 days). The experiment is classed as cell-based. Conditions: Homo sapiens, HCT-116, 192 h, 8 days incubation. As to the method:
Test 2: Compound's inhibitory activity on proliferation of HCT-116 MTAP wild-type cells.
Materials and Cells: HCT-116 MTAP wild-type cells obtained from Kyinno Bio (China); RPMI-1640 medium, fetal bovine serum, and penicillin-streptomycin purchased from Thermo Fisher Scientific (America); 384-well plates from PerkinElmer (America); Cell-Titer Glo assay kit from Promega (America).
Cell Culture: HCT116 MTAP wild-type cells were cultured in RPMI 1640 medium containing 10% fetal bovine serum and 1% penicillin-streptomycin at 37° C., 5% CO2. Only cells in logarithmic growth phase were used for experiments.
Cell Proliferation Inhibition Assay: The compound's inhibitory activity on HCT-116 MTAP wild-type cells was assessed using the Cell-Titer Glo assay kit. Adjusting cell concentration, 40 μL was seeded into a 384-well plate and cultured overnight at 37° C., 5% CO2. Each well received 40 nL of the compound, achieving concentrations from 0 to 10,000 nM (starting concentration 10,000 nM, 3-fold dilution, 10 points), with 0.1% DMSO. The cell plate was incubated for 8 days at 37° C., 5% CO2. Cell-Titer Glo reagent (40 μL) was added to measure cell viability.

Experiment [2] concerns HCT-116 MTAP(−/−) deficient cells. Description: Inhibitory activity on proliferation of HCT-116 MTAP(−/−) deficient cells (Cell-Titer Glo, 8 days). In kind it is cell-based. Conditions: Homo sapiens, HCT-116, 192 h, 8 days incubation. As for the experimental part: Test 1: Compound's inhibitory activity on proliferation of HCT-116 MTAP(−/−) deficient cells. P Materials and Cells: HCT-116 MTAP(−/−) deficient cells obtained from Kyinno Bio (China); RPMI-1640 medium, fetal bovine serum, and penicillin-streptomycin purchased from Thermo Fisher Scientific (America); 384-well plates from PerkinElmer (America); Cell-Titer Glo assay kit from Promega (America).
Cell Culture: HCT116 MTAP(−/−) deficient cells were cultured in RPMI 1640 medium containing 10% fetal bovine serum and 1% penicillin-streptomycin at 37° C., 5% CO2. Only cells in logarithmic growth phase were used for experiments.
Cell Proliferation Inhibition Assay: The compound's inhibitory activity on HCT-116 MTAP(−/−) deficient cells was assessed using the Cell-Titer Glo assay kit. Adjusting cell concentration, 40 μL was seeded into a 384-well plate and cultured overnight at 37° C., 5% CO2. Each well received 40 nL of the compound, achieving concentrations from 0 to 10,000 nM (starting concentration 10,000 nM, 3-fold dilution, 10 points), with 0.1% DMSO. The cell plate was incubated for 8 days at 37° C., 5% CO2. Cell-Titer Glo reagent (40 μL) was added to measure cell viability.

Structures are written as SMILES.

Consider `CN(C(=O)c1cc2c(cc1F)nc(N)c1cncn12)[C@@H]1COc2cc(S(C)(=O)=O)ccc21` [Example 38, (S)-4-amino-7-fluoro-N-methyl-N-(6-(methylsulfonyl)-2,3-dihydrobenzofuran-3-yl)imidazo[1,5-a] quinoxaline-8-carboxamide], for which the figures for the half-maximal inhibitory concentration (IC50) in experiment [1] and in experiment [2] were 4060 nM and 30 nM, respectively.

For `CN(C(=O)c1ccc2nc(N)c3cncn3c2c1)C1CSc2cc(C(F)(F)F)ccc21` (centres unmarked) [Example 43, 4-amino-N-methyl-N-(6-(trifluoromethyl)-2,3-dihydrobenzo[b]thiophen-3-yl)imidazo [1,5-a]quinoxaline-8-carboxamide], the IC50 stood at 2990 nM in experiment [1] and 22.4 nM in experiment [2].

Consider `CN(C(=O)c1ccc2nc(N)c3cncn3c2c1)C1CCOCc2cc(C(F)(F)F)ccc21` (centres unmarked) [Example 44, 4-amino-N-methyl-N-(8-(trifluoromethyl)-1,3,4,5-tetrahydrobenzo[c]oxepin-5-yl) imidazo[1,5-a] quinoxaline-8-carboxamide], for which the half-maximal inhibitory concentration (IC50) in experiment [1] was more than 10000 nM; in experiment [2] it was 310 nM.

As to `CN(C(=O)c1ccc2nc(N)c3cncn3c2c1)[C@@H]1COc2cc(Cl)ccc21` [Example 70, (S)-4-amino-N-(6-chloro-2,3-dihydrobenzofuran-3-yl)-N-methylimidazo[1,5-a]quinoxaline-8-carboxamide], the IC50 is 3890 nM in experiment [1] and 54 nM in experiment [2].

As to `Cc1ncc(-c2ccc3c(c2)OCC3N(C(=O)c2ccc3nc(N)c4cncn4c3c2)C2CC2)cn1` (centres unmarked) [Example 72, 4-amino-N-cyclopropyl-N-(6-(2-methylpyrimidin-5-yl)-2,3-dihydrobenzofuran-3-yl)imidazo[1,5-a]quinoxaline-8-carboxamide], the IC50 is more than 20000 nM in experiment [1] and 117 nM in experiment [2].

Consider `Nc1nc2ccc(C(=O)N(C3CC3)C3COc4cc(Br)ccc43)cc2n2cncc12` (centres unmarked) [Example 74, 4-amino-N-(6-bromo-2,3-dihydrobenzofuran-3-yl)-N-cyclopro-pylimidazo[1,5-a] quinoxaline-8-carboxamide], for which the IC50 was determined as 5990 nM in experiment [1] and 148 nM in experiment [2].

In the case of `[2H]c1ncc2c(N)nc3ccc(C(=O)N(C)[C@@H]4COc5cc(C(F)(F)F)ccc54)cc3n12` [Example 78, (S)-4-amino-N-methyl-N-(6-(trifluoromethyl)-2,3-dihydrobenzofuran-3-yl)imidazo[1,5-a]quinoxaline-8-carboxamide-1-d], the figures for the concentration for half-maximal inhibition (IC50) in experiment [1] and in experiment [2] were 2070 nM and 7.1 nM, respectively.

Consider `[2H]c1ncn2c1c(N)nc1ccc(C(=O)N(C)[C@@H]3COc4cc(C(F)(F)F)ccc43)cc12` [Example 79, (S)-4-amino-N-methyl-N-(6-(trifluoromethyl)-2,3-dihydrobenzo-furan-3-yl)imidazo [1,5-a]quinoxaline-8-carboxamide-3-d], for which the half-maximal inhibitory concentration (IC50) in experiment [1] was 1300 nM; in experiment [2], 5.6 nM.

As to `Nc1nc2ccc(C(=O)N(C3CC3)[C@H]3COc4cc(Br)ccc43)cc2n2cncc12` [Example 81, (R)-4-amino-N-(6-bromo-2,3-dihydrobenzofuran-3-yl)-N-cyclopropylimidazo[1,5-a]quinoxaline-8-carboxamide], the IC50 in experiment [1] came to 2360 nM; in experiment [2], 1790 nM.

For the compound `C[C@@H]1OC[C@@H](N(C)C(=O)c2ccc3nc(N)c4cncn4c3c2)c2ccc(C(F)(F)F)cc21` [Example 105, 4-amino-N-methyl-N-((1S,4S)-1-methyl-7-(trifluoromethyl)isoch-roman-4-yl)imidazo [1,5-a]quinoxaline-8-carboxamide], the IC50 in experiment [1] amounted to 2190 nM; in experiment [2], 66.1 nM.

For `CN(C(=O)c1cc2c(cc1F)nc(N)c1cncn12)[C@@H]1CCOc2cc(-c3cnn(C(F)(F)F)c3)ccc21` [Example 113, (R)-4-amino-7-fluoro-N-methyl-N-(7-(1-(trifluoromethyl)-1H-pyrazol-4-yl)chroman-4-yl) imidazo[1,5-a] quinoxaline-8-carboxamide], the results for the concentration for half-maximal inhibition (IC50) in experiment [1] and in experiment [2] were more than 10000 nM and 88.1 nM, respectively.

Take `CN(C(=O)c1cc2c(cc1F)nc(N)c1cncn12)[C@H]1COc2cc(C(F)(F)F)ccc21` [Example 120, (R)-4-amino-7-fluoro-N-methyl-N-(6-(trifluoromethyl)-2,3-dihydrobenzofuran-3-yl)imidazo[1,5-a]quinoxaline-8-carboxamide]: the IC50 is more than 10000 nM in experiment [1] and 900 nM in experiment [2].

As to `CN(C(=O)c1ccc2nc(N)c3cncn3c2c1)[C@@H]1CSc2cc(S(=O)(=O)C3CC3)ccc21` [Example 133, (S)-4-amino-N-(6-(cyclopropylsulfonyl)-2,3-dihydrobenzo[b]thiophen-3-yl)-N-methylimidazo[1,5-a] quinoxaline-8-carboxamide], the concentration for half-maximal inhibition (IC50) was more than 10000 nM in experiment [1] and 71.4 nM in experiment [2].
